System: DSPP gene
Test: mRNA level of DSPP gene in MDPC-23 cells by RT-PCR and real-time PCR
Type: cell-based, mouse
Details: cultured 48 hours with peptide, relative ratio to mRNA level in untreated control, Gapdh internal control, repeated three times
Procedure: The MDPC-23 cells cultured in Example 2-1 were treated with the peptides of each group synthesized in Example 1, then cultured for 48 hours. The mRNA level of the DSPP, an odontoblast differentiation marker gene, expressed in the MDPC-23 cells were measured, and the measured mRNA level of each DSPP gene was converted into a relative ratio to the mRNA level of the DSPP gene measured in control (Tables 13 to 24). In addition, the average value of the mRNA level of the DSPP gene measured according to the peptides of each group was compared (FIG. 1B). At this time, as a control, MDPC-23 cells that were not treated with the peptide promoting differentiation of odontoblast were used.
The expression level of the DSPP gene was measured through RT-PCR and real-time PCR analysis: Specifically, total RNA was extracted from the MDPC-23 cells using TRIzol reagent. 2 μg of the total RNA, 1 μl of reverse transcriptase, and 0.5 μg of oligo (oligo; dT) were used to synthesize cDNA. The synthesized cDNA was used in a real-time polymerase chain reaction. The real-time polymerase chain reaction was performed on an ABI PRISM 7500 sequence detection system (Applied Biosystems) and an SYBR GREEN PCR Master Mix (Takara, Japan). The real-time polymerase chain reaction was performed under conditions of 94° C., 1 min; 95° C., 15 sec; 60° C., 34 sec for 40 cycles. Results were analyzed by a comparative cycle threshold (CT) method. At this time, the Gapdh gene was used as the internal control group, and the measured value was repeated three times. The mean value and standard deviation value thereof were used.

Row | Substance | mRNA level of Dspp gene Mean
1 | 1 (KYQRRKKNKY; Novel peptide) [compound 1] | 1.754
2 | 2 (KYQRRKRNKY; Novel peptide) [compound 2] | 1.646
3 | 4 (KYQRRRRNKY; Novel peptide) [compound 4] | 1.855
4 | 5 (KYQRKKKNKY; Novel peptide) [compound 5] | 1.639
5 | 6 (KYQRKRKNKY; Novel peptide) [compound 6] | 1.746
6 | 7 (KYQRKKRNKY; Novel peptide) [compound 7] | 1.864
7 | 8 (KYQRKRRNKY; Novel peptide) [compound 8] | 1.639
8 | 9 (KYQRRKKSKY; Novel peptide) [compound 9] | 1.854
9 | 10 (KYQRRKRSKY; Novel peptide) [compound 10] | 1.746
10 | 11 (KYQRRRKSKY; Novel peptide) [compound 11] | 1.639
11 | 12 (KYQRRRRSKY; Novel peptide) [compound 12] | 1.548
12 | 13 (KYQRKKKSKY; Novel peptide) [compound 13] | 1.685
13 | 14 (KYQRKRKSKY; Novel peptide) [compound 14] | 1.846
14 | 15 (KYQRKKRSKY; Novel peptide) [compound 15] | 1.964
15 | 16 (KYQRKRRSKY; Novel peptide) [compound 16] | 1.739
16 | 17 (KYQRRKKNYK; Novel peptide) [compound 17] | 2.117
17 | 18 (KYQRRKRNYK; Novel peptide) [compound 18] | 2.319
18 | 19 (KYQRRRKNYK; Novel peptide) [compound 19] | 1.931
19 | 20 (KYQRRRRNYK; Novel peptide) [compound 20] | 2.553
20 | 21 (KYQRKKKNYK; Novel peptide) [compound 21] | 1.893
21 | 22 (KYQRKRKNYK; Novel peptide) [compound 22] | 2.412
22 | 23 (KYQRKKRNYK; Novel peptide) [compound 23] | 2.171

Row | Substance | mRNA level of Dspp gene Mean
23 | 24 (KYQRKRRNYK; Novel peptide) [compound 24] | 2.212
24 | 25 (KYQRRKKSYK; Novel peptide) [compound 25] | 2.371
25 | 26 (KYQRRKRSYK; Novel peptide) [compound 26] | 2.193
26 | 27 (KYQRRRKSYK; Novel peptide) [compound 27] | 1.993
27 | 28 (KYQRRRRSYK; Novel peptide) [compound 28] | 2.453
28 | 29 (KYQRKKKSYK; Novel peptide) [compound 29] | 1.883
29 | 30 (KYQRKRKSYK; Novel peptide) [compound 30] | 2.512
30 | 31 (KYQRKKRSYK; Novel peptide) [compound 31] | 2.371
31 | 32 (KYQRKRRSYK; Novel peptide) [compound 32] | 2.219
32 | 33 (KYRQRKKNKY; Novel peptide) [compound 33] | 1.712
33 | 34 (KYRQRKRNKY; Novel peptide) [compound 34] | 1.931
34 | 35 (KYRQRRKNKY; Novel peptide) [compound 35] | 1.983
35 | 36 (KYRQRRRNKY; Novel peptide) [compound 36] | 2.319
36 | 37 (KYRQKKKNKY; Novel peptide) [compound 37] | 1.597
37 | 38 (KYRQKRKNKY; Novel peptide) [compound 38] | 2.116
38 | 39 (KYRQKKRNKY; Novel peptide) [compound 39] | 1.712
39 | 40 (KYRQKRRNKY; Novel peptide) [compound 40] | 2.219
40 | 41 (KYRQRKKSKY; Novel peptide) [compound 41] | 1.546
41 | 42 (KYRQRKRSKY; Novel peptide) [compound 42] | 1.586
42 | 43 (KYRQRRKSKY; Novel peptide) [compound 43] | 1.669
43 | 44 (KYRQRRRSKY; Novel peptide) [compound 44] | 1.793
44 | 45 (KYRQKKKSKY; Novel peptide) [compound 45] | 1.532

Row | Substance | mRNA level of Dspp gene Mean
45 | 46 (KYRQKRKSKY; Novel peptide) [compound 46] | 1.887
46 | 47 (KYRQKKRSKY; Novel peptide) [compound 47] | 1.697
47 | 48 (KYRQKRRSKY; Novel peptide) [compound 48] | 1.558
48 | 49 (KYRQRKKNYK; Novel peptide) [compound 49] | 1.923
49 | 50 (KYRQRKRNYK; Novel peptide) [compound 50] | 1.887
50 | 51 (KYRQRRKNYK; Novel peptide) [compound 51] | 1.601
51 | 52 (KYRQRRRNYK; Novel peptide) [compound 52] | 2.019
52 | 53 (KYRQKKKNYK; Novel peptide) [compound 53] | 1.592
53 | 54 (KYRQKRKNYK; Novel peptide) [compound 54] | 1.437
54 | 55 (KYRQKKRNYK; Novel peptide) [compound 55] | 1.663
55 | 56 (KYRQKRRNYK; Novel peptide) [compound 56] | 1.701
56 | 57 (KYRQRKKSYK; Novel peptide) [compound 57] | 2.039
57 | 58 (KYRQRKRSYK; Novel peptide) [compound 58] | 1.998
58 | 59 (KYRQRRKSYK; Novel peptide) [compound 59] | 1.792
59 | 60 (KYRQRRRSYK; Novel peptide) [compound 60] | 2.107
60 | 61 (KYRQKKKSYK; Novel peptide) [compound 61] | 2.301
61 | 62 (KYRQKRKSYK; Novel peptide) [compound 62] | 1.672
62 | 63 (KYRQKKRSYK; Novel peptide) [compound 63] | 1.769
63 | 64 (KYRQKRRSYK; Novel peptide) [compound 64] | 1.967
64 | 65 (KYKQRKKNKY; Novel peptide) [compound 65] | 1.723
65 | 66 (KYKQRKRNKY; Novel peptide) [compound 66] | 1.627
66 | 67 (KYKQRRKNKY; Novel peptide) [compound 67] | 1.777

Row | Substance | mRNA level of Dspp gene Mean
67 | 68 (KYKQRRRNKY; Novel peptide) [compound 68] | 1.432
68 | 69 (KYKQKKKNKY; Novel peptide) [compound 69] | 2.011
69 | 70 (KYKQKRKNKY; Novel peptide) [compound 70] | 1.927
70 | 71 (KYKQKKRNKY; Novel peptide) [compound 71] | 1.879
71 | 72 (KYKQKRRNKY; Novel peptide) [compound 72] | 2.011
72 | 73 (KYKQRKKSKY; Novel peptide) [compound 73] | 2.035
73 | 74 (KYKQRKRSKY; Novel peptide) [compound 74] | 2.011
74 | 75 (KYKQRRKSKY; Novel peptide) [compound 75] | 1.997
75 | 76 (KYKQRRRSKY; Novel peptide) [compound 76] | 2.351
76 | 77 (KYKQKKKSKY; Novel peptide) [compound 77] | 1.729
77 | 78 (KYKQKRKSKY; Novel peptide) [compound 78] | 2.635
78 | 79 (KYKQKKRSKY; Novel peptide) [compound 79] | 2.231
79 | 80 (KYKQKRRSKY; Novel peptide) [compound 80] | 1.837
80 | 81 (KYKQRKKNYK; Novel peptide) [compound 81] | 3.092
81 | 82 (KYKQRKRNYK; Novel peptide) [compound 82] | 3.361
82 | 83 (KYKQRRKNYK; Novel peptide) [compound 83] | 3.572
83 | 84 (KYKQRRRNYK; Novel peptide) [compound 84] | 3.702
84 | 85 (KYKQKKKNYK; Novel peptide) [compound 85] | 3.67
85 | 86 (KYKQKRKNYK; Novel peptide) [compound 86] | 3.705
86 | 87 (KYKQKKRNYK; Novel peptide) [compound 87] | 3.888
87 | 88 (KYKQKRRNYK; Novel peptide) [compound 88] | 4.021
